PubChem BioAssay (NCI)
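Tested at 5 concentrations; 48 h exposure; 96-well plates; endpoints linearly interpolated, else capped at highest concentration. Definition used: TGI = concentration required for complete inhibition of growth.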

Tests used:
Assay in all cases: inhibition of tumour cell growth, NCI panel, 48 h
786-0 renal = system: 786-0 renal
A498 renal = system: A498 renal
A549 NSCLC = system: A549 NSCLC
ACHN renal = system: ACHN renal
CAKI-1 renal = system: CAKI-1 renal
CCRF-CEM leukemia = system: CCRF-CEM leukemia
COLO 205 colon = system: COLO 205 colon
DU-145 prostate = system: DU-145 prostate
EKVX NSCLC = system: EKVX NSCLC
HCC-2998 colon = system: HCC-2998 colon
HCT-116 colon = system: HCT-116 colon
HCT-15 colon = system: HCT-15 colon
HL-60(TB) leukemia = system: HL-60(TB) leukemia
HOP-62 NSCLC = system: HOP-62 NSCLC
HOP-92 NSCLC = system: HOP-92 NSCLC
HS 578T breast = system: HS 578T breast
HT29 colon = system: HT29 colon
IGROV1 ovarian = system: IGROV1 ovarian
K-562 leukemia = system: K-562 leukemia
KM12 colon = system: KM12 colon
LOX IMVI melanoma = system: LOX IMVI melanoma
M14 melanoma = system: M14 melanoma
MALME-3M melanoma = system: MALME-3M melanoma
MCF7 breast = system: MCF7 breast
MDA-MB-231 breast = system: MDA-MB-231 breast
MDA-MB-435 = system: MDA-MB-435
MDA-N = system: MDA-N
MOLT-4 leukemia = system: MOLT-4 leukemia
NCI-H226 lung = system: NCI-H226 lung
NCI-H23 lung = system: NCI-H23 lung
NCI-H460 lung = system: NCI-H460 lung
NCI-H522 lung = system: NCI-H522 lung
NCI/ADR-RES ovarian = system: NCI/ADR-RES ovarian
OVCAR-3 ovarian = system: OVCAR-3 ovarian
OVCAR-4 ovarian = system: OVCAR-4 ovarian
OVCAR-8 ovarian = system: OVCAR-8 ovarian
PC-3 prostate = system: PC-3 prostate
RPMI-8226 leukemia = system: RPMI-8226 leukemia
RXF 393 renal = system: RXF 393 renal
SF-268 CNS = system: SF-268 CNS
SF-295 CNS = system: SF-295 CNS
SF-539 CNS = system: SF-539 CNS
SK-MEL-2 melanoma = system: SK-MEL-2 melanoma
SK-MEL-28 melanoma = system: SK-MEL-28 melanoma
SK-MEL-5 melanoma = system: SK-MEL-5 melanoma
SK-OV-3 ovarian = system: SK-OV-3 ovarian
SN12C renal = system: SN12C renal
SNB-19 CNS = system: SNB-19 CNS
SNB-75 CNS = system: SNB-75 CNS
SR leukemia = system: SR leukemia
SW-620 colon = system: SW-620 colon
T-47D breast = system: T-47D breast
TK-10 renal = system: TK-10 renal
U251 CNS = system: U251 CNS
UACC-257 melanoma = system: UACC-257 melanoma
UACC-62 melanoma = system: UACC-62 melanoma
UO-31 renal = system: UO-31 renal
BT-549 breast = system: BT-549 breast
OVCAR-5 ovarian = system: OVCAR-5 ovarian

Measured: TGI

Nc1nnnn1NC(=O)NCCCl
not listed: BT-549 breast | OVCAR-5 ovarian
> 10 µM: all other assays above

COc1ccc2nc3n(c2c1)C(c1c(F)cccc1Cl)SC3 (stereo not drawn)
not listed: HS 578T breast | HT29 colon | MALME-3M melanoma | MDA-MB-231 breast | NCI-H226 lung | NCI-H522 lung | SF-268 CNS | SF-539 CNS
> 100 µM: all other assays above
